Patent US10213445B2, “Compositions and methods of diazeniumdiolate-based prodrugs for treating cancer” (ARIZONA BOARD OF REGENTS ON BEHALF OF THE UNIVERSITY OF …, priority 2014, dated 2019)
One block for each molecule: values may come before it.

Assays:
MDA-MB-231 xenografts = assay: MDA-MB-231-GFP xenograft growth and brain metastasis in nude mice; format: in vivo; conditions: daily injection of equimolar doses for five weeks, vs control
Experimental: The cells were allowed to grow for 14 d, and the animals (40) were randomly divided into four groups (control, aspirin, IPA/NO-aspirin or DEA/NO-aspirin). Treated groups were injected daily with equimolar doses of DEA/NO-aspirin or IPA/NO-aspirin (16 mg kg^−1) or aspirin (9 mg kg^−1)) or with DMSO for the next five weeks.
For examples utilizing mouse tumor model methods, the following procedure was instituted. Analysis of tumor growth was carried out using protocols approved by the Committee on the Ethics of Animal Experiments of the National Cancer Institute (RBB-144) and adhered with the recommendations in the United States National Research Council's “Guide for the Care and Use of Laboratory Animals,” the United States Public Health Service's “Guide for the Care and Use of Laboratory Animals” and the “Policy on Humane Care and Use of Laboratory Animals”. The vivarium was maintained at 23° C. on a 12 h light/12 h dark cycle with ad libitum access to food and water. Nude mice (n=40) under general anesthesia were implanted with 7.5×10^5 MDA-MB-231 cells transfected with GFP by injection underneath the fourth left mammary gland. Prior to implantation, pedal withdrawal and eyelid reflexes were examined to ensure that mice were under stage III of anesthesia. At 14 days post-inoculation, the mice were randomly divided into four groups and treated by daily injection of equimolar doses (10 μL of 100 mM stock) of aspirin (9.00 mg kg^−1), IPA/NO-aspirin (15.8 mg kg^−1) or DEA/NO-aspirin (16.3 mg kg^−1) or with vehicle (DMSO). After five weeks, the tumor size was measured using in vivo fluorescent imaging for quantification of the GFP tag. In brief, mice were under general anesthesia throughout the whole body imaging process, and GFP signals were captured and quantified in an Xenogen IVIS 100 Imaging System according to the manufacturer's protocol. To assess metastasis in the brain, the animals were subsequently sacrificed following the approved method and guidelines.

MDA-MB-231 cells = assay: Oxidation of DCF (oxidant level) in cells; format: cell-based, human; conditions: 100 μM, 37° C., MDA-MB-231 as representative example
Experimental: DCF loaded cells were treated with IPA/NO-aspirin (blue), DEA/NO-aspirin (green), IPA/NO (magenta), DEA/NO (brown), aspirin (red) or DMSO (0.1%; black) at 37° C., and the fluorescence at 535 nm was measured in a time-dependent manner. Data are plotted as mean±SD (n=4).

BCL-2 = BCL-2 expression; format: cell-based; conditions: FIG. 18
ER-α = ER-α levels (mRNA of ER1) in ER-α(−) cells; format: cell-based; conditions: FIG. 20
[1] = test system: various cancer cells lines; conditions: read-out: IC50 (cytotoxicity); cited from earlier work
[2] = Decomposition kinetics by UV spectrophotometry in PBS; format: physicochemical; conditions: for pH dependence of hydrolysis rate: 37° C.
Experimental: FIGS. 3A and 3B are graphs illustrating the pH-dependence of the rate constant of decomposition of (FIG. 3A) 1 (100 or 200 μM) and (FIG. 3B) 2 (100 μM) at 37° C. in PBS containing 50 μM DTPA measured at 250 nm (mean±SEM, n≥3).
(§1) The rate constants of decomposition were measured spectrophotometrically by monitoring the decrease in absorbance of peaks at ^˜240-250 nm characteristic of the diazeniumdiolate functionality. The hydrolysis medium consisted of the metal chelator diethylenetriaminepentaacetic acid (DTPA, 50 μM) in calcium- and magnesium-free Dulbecco's phosphate-buffered saline (PBS, pH 7.4). UV-visible spectroscopy was performed with a Hewlett-Packard 8453 diode-array spectrophotometer equipped with Agilent 89090A thermostat set to 37° C. The spectrophotometer was blanked after warming the cuvette containing buffer at the appropriate pH in the instrument heat block for 5 min. For esterase-containing reactions, porcine liver esterase (20 μL; Sigma; suspension in 3.2 M (NH4)2SO4, pH 8) was added to the reaction buffer before blanking. Upon addition of IPA/NO (1) or AcOM-IPA/NO (2) (≤10 μL of stock), the cuvette was capped and inverted to mix. Spectra were collected at 0.5- to 60-s intervals for time periods of 2-120 min or until A∞<0.05. Kinetic analysis was performed by fitting the data to an exponential decay (A=ΔAe^−kt+A∞) using KaleidaGraph v.3.1.

porcine liver esterase = assay: Esterase-catalyzed hydrolysis; format: in vitro ADME
Experimental: FIGS. 4A-C are graphs illustrating spontaneous hydrolysis (FIGS. 4A and 4B) and esterase-catalyzed hydrolysis (FIG. 4C) of 2 in an embodiment of the invention. In FIG. 4A, spectra were collected every 60 s (10-min intervals shown) after dissolving 2 in PBS (pH 7.4) at 37° C., and only loss of the parent compound was observed. In FIG. 4B, the pH was elevated to 12, and scans were collected every 0.5 s (through 2.5 s and 3.5, 5.5, 9.5, and 54.5 shown). In FIG. 4C, porcine liver esterase (20 μL in 3 mL) was added (pH 7.4), and spectra were collected every 10 s. Hydrolysis of 2 (λmax 236 nm) to 1 (λmax 250 nm) was complete within 40 s (0.067 s^−1) under these conditions. […] Elevation of the intensity near 200 nm indicated formation of autoxidation products such as nitrite. Deaeration inhibited this peak (data not shown).
as §1

[3] = Alkaline hydrolysis at pH 11 followed by NMR; format: physicochemical
Experimental: Organic products of the hydrolysis of 1 and 2 were quantified by integrating their NMR spectra. For pH 7.4, 3.9 mM solutions in 0.1 M phosphate buffer were employed. For pH 11, 4.9 mM solutions of 1 and 2 in 50 mM sodium carbonate were studied. Samples were run on a Varian Inova 400 MHz NMR with a Dell Precision 390 workstation. The samples were run at 37° C. and water suppression was achieved by using the preset pulse sequence. Peaks were identified by comparison with authentic standards.
Differences in time course as well as stoichiometry in the alkaline hydrolysis of 1 and 2 also matched the expectation based on the HNO/NO yield and rate data. […] Compound 2, on the other hand, completely dissociated within 5 min at 37° C. in a pH 11 carbonate buffer. […] However, the amine was undetectable.

MDA-MB-231 xenograft = conditions: SCID mice, 17 and 50 mg kg^−1, compared to control; cited from earlier work
PARP = biological target: T1, PARP (Homo sapiens, UniProt P09874); conditions: caspase-3 null MCF-7 cells; cited from earlier work
T1 construct: on PARP activity has been determined in caspase-3 null MCF-7 cells; host or cells: MCF-7
T1 sequence (P09874 whole entry): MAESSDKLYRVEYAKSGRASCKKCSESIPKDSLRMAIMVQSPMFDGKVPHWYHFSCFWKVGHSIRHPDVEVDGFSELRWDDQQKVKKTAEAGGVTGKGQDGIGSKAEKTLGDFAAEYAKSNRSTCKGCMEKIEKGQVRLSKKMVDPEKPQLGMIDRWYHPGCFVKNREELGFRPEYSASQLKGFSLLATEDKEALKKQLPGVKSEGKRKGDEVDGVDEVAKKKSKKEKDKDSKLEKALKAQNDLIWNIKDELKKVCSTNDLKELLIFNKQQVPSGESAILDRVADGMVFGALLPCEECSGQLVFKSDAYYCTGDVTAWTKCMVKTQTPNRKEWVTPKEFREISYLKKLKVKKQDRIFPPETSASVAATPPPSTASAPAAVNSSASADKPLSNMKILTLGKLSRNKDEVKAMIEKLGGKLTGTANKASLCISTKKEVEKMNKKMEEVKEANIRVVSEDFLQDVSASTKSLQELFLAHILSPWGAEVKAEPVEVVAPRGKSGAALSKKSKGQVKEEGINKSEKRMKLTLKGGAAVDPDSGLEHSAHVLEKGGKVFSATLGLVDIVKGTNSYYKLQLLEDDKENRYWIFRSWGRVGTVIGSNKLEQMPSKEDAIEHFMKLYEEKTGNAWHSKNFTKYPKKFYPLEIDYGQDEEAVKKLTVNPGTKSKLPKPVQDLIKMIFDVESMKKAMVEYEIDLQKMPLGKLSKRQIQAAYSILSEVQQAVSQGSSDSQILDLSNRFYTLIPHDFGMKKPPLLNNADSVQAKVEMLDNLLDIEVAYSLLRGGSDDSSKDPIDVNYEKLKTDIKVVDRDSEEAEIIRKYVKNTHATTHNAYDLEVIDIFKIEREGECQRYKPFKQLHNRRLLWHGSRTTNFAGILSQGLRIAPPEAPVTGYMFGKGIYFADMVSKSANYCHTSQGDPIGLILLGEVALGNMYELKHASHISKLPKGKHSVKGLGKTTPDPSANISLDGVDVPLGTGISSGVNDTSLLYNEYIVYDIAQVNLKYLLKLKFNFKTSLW

[4] = test system: angiogenesis in mouse tumor specimens; conditions: high concentration; cited from earlier work
[5] = test system: vascular endothelial growth factor (VEGF); conditions: high concentration; cited from earlier work
[6] = biological target: hypoxia-inducible factor (HIF) 1α (Homo sapiens, UniProt Q16665); conditions: high concentration, human breast cancer cells; cited from earlier work
hypoxia-inducible factor (HIF) 1α, sequence (Q16665 whole entry): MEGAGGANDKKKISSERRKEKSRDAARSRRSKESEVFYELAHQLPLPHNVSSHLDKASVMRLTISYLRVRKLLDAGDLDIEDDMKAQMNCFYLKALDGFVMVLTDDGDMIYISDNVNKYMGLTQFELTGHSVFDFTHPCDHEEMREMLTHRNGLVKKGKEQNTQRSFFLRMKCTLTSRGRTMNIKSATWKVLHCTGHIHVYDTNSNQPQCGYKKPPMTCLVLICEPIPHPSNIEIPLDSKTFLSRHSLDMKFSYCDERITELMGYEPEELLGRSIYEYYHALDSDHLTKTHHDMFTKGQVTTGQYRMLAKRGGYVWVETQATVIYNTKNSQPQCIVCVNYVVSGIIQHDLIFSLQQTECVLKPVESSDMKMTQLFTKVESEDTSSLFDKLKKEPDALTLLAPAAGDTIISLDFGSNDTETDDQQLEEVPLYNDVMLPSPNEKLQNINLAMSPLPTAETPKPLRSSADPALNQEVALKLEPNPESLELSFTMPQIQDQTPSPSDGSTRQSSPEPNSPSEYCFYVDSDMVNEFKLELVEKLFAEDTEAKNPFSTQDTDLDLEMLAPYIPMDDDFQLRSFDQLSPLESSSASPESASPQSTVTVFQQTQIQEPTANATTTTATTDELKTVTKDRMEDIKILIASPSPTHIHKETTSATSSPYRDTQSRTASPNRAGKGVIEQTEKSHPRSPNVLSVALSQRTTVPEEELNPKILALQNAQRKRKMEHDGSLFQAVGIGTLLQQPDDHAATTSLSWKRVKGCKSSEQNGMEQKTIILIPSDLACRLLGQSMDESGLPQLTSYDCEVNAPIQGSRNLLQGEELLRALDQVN

MB-231 cells = assay: cells; conditions: Homo sapiens, 48 h
Experimental: In this example, a 3-(4,5-dimethylthiazol-2-yl)-2,5-diphenyltetrazolium bromide (MTT)viability assay was used to evaluate combination therapy to on the cytotoxicity of cancer cells using compound embodiments.
Cells were plated at 8,000-10,000 cells per well in a 96-well plate and grown overnight. […] Thereafter, 10 μL of 5 mg/mL MTT was added to each well, and the plate was incubated for 1 hour at 37° C. After removal of the media, 100 μL of DMSO was added to each well, and the absorbance was recorded at 550 nm. Growth inhibition is reported as the percentage of the corresponding control.

[7] = porcine liver esterase 20 μL in 3 mL, pH 7.4

Structure (SMILES): CC(=O)Oc1ccccc1C(=O)O [aspirin, reference compound]
size of the primary tumor (GFP fluorescence intensity, tumor mass) (MDA-MB-231 xenografts): did not significantly decrease
oxidation of DCF (fluorescence intensity) (MDA-MB-231 cells): ineffective compared to control
BCL-2 expression (BCL-2): induce BCL-2 expression
ER-α levels (ER-α): increases ERα levels
IC50 [1]: > 1000 µM

rate of decay of 1 ([2]; PBS with 50 μM DTPA, 37° C. (FIG. 3A)): 0.0012 s⁻¹
rate of decay of 1 (porcine liver esterase; 1 formed from 2 with esterase, pH 7.4 (FIG. 4C)): 0.0033 s⁻¹
hydrolysis at pH 11 ([3]; pH 11): hydrolyzed slowly
hydrolysis rate relative to 2 (more slowly) ([3]; pH 11): 100 fold
Structure (SMILES): CC(C)N[N+]([O-])=N[O-].[Na+] [Compound 1, O^2-Sodium 1-(N-Isopropylamino)diazen-1-ium-1,2-diolate, reference compound]
pH dependence of hydrolysis rate ([2]; PBS with 50 μM DTPA): slowed as the pH was increased from 3 to 10, with a small increase in rate thereafter
oxidation of DCF (fluorescence intensity) (MDA-MB-231 cells): oxidized DCF, but to a much reduced extent

Structure (SMILES): [Na+].[Na+].[O-][N+]([O-])=NO [Angeli's salt, Na2N2O3]
tumor growth (MDA-MB-231 xenograft): some inhibition of tumor growth
inhibitory effect on PARP activity (PARP): rapid, but required rather high concentrations of donor
angiogenesis [4]: inhibited angiogenesis
serum VEGF levels [5]: decreased
HIF 1α [6]: inhibited

Structure (SMILES): CC(=O)OCO/N=[N+](\[O-])NC(C)C [Compound 2, O^2-(acetoxymethyl)1-(isopropylamino)diazen-1-ium-1,2-diolate]
pH dependence of hydrolysis rate ([2]; PBS with 50 μM DTPA): essentially first order in hydroxide ion concentration between pH 5 and 11
hydrolysis rate relative to 1 ([2]; physiological pH): an order of magnitude slower
rate of hydrolysis of 2 to 1 (porcine liver esterase; [7]): 0.067 s⁻¹
time to complete hydrolysis of 2 to 1 (porcine liver esterase; [7]): ≤ 40 s
time to complete dissociation ([3]; 37° C., pH 11 carbonate buffer): ≤ 5 min

Structure (SMILES): CC/C(=C(\c1ccccc1)c1ccc(OCCN(C)C)cc1)c1ccccc1 [tamoxifen]
viability at 10 µM (MB-231 cells): 76%

Structure (SMILES): CCN(CC)[N+]([O-])=N[O-].[Na+] [DEA/NO, O^2-Sodium 1-(N,N-Diethylamino)diazen-1-ium-1,2-diolate]
oxidation of DCF (fluorescence intensity) (MDA-MB-231 cells): oxidized DCF, but to a much reduced extent
inhibitory effect on PARP activity (PARP): rapid, but required rather high concentrations of donor
